≈ marks a conversion by molar mass, not a printed value. Values belong to the compound of their own block, whether it stands above or below them.
Experiments:
[1] = test system: smooth muscle strips isolated from rabbit small intestine; assay: Induction of in vitro rabbit duodenal smooth muscle contraction; details: for EC50: Oryctolagus cuniculus, rabbit duodenum longitudinal muscle, 37° C., pH 7.5, read-out: pED50 (negative logarithm of the concentration producing half of the maximal contraction) (converted); for Relative Potency: relative to erythromycin A = 1.0; for Endpoint (pED50) could not be obtained, potency in words: footnote a of Table 2
Method: The compounds of the present invention were tested in vitro for their ability to induce contraction of smooth muscle strips isolated from rabbit small intestine using the following procedure:
Rabbits were sacrificed and 15 cm of duodenum was rapidly removed and placed in ice-cold modified Ringers solution (120 mM sodium chloride, 25 mM sodium bicarbonate, 4.7 mM potassium chloride, 1.25 mM calcium chloride, 1.20 mM magnesium sulfate and 5.6 mM glucose). The longitudinal muscle layer was separated from the circular muscle by blunt dissection and cut into strips of 10×20 mm. Double-folded strips were vertically suspended between two hooks in 10 mL tissue baths with a mechanical preload of 1 g. The upper hook was connected to an […] force transducer, and its displacement was recorded on a Grass polygraph. The tissue baths contained modified Ringers solution at 37° C. and were continuously gassed with 95% oxygen/5% carbon dioxide in order to maintain the pH at 7.5.
After a stabilization period of at least 60 minutes, a contractility dose-response series was performed by adding increasing final concentrations of methacholine (10^-7 M, 10^-6 M and 10^-5 M) in volumes of 100 μL. The bath solutions were replaced at least three times between doses.
After the methacholine dose-response series was completed, a test compound dose response curve was initiated by the same procedure used for the methacholine dose-response series, with at least five concentrations of test compound within the range of 10^-10 M to 10^-4 M. The tissues were washed repeatedly between doses, and the studies were completed by recording the contractile response to 10^-5 M methacholine to ascertain integrity of the muscle preparation. Contractile responses were expressed as percent of maximal contraction. The concentration of test compound which produces half of the maximal contraction (ED50 value) and the negative logarithm of the ED50 value (PED50) were estimated from the dose-response curves.

[2] = test system: Pseudomonas aeruginosa DPHD-2862; assay: Antibacterial activity (MIC), agar dilution method; assay type: cell-based; details: unit assumed
Method: (§1) Compounds of the invention were next tested for antibacterial potency, such activity being regarded as an undesirable side effect if prokinetic therapy. Assays were conducted using methodology well-known in the art (the agar dilution method).

[3] = test system: Streptococcus pyogenes EES61; assay: Antibacterial activity (MIC), agar dilution method; assay type: cell-based; details: unit assumed
Method: as §1

[4] = test system: Staphylococcus aureus A-5278; assay: Antibacterial activity (MIC), agar dilution method; assay type: cell-based; details: unit assumed
Method: as §1

[5] = test system: Staphylococcus aureus 642A; assay: Antibacterial activity (MIC), agar dilution method; assay type: cell-based; details: unit assumed
Method: as §1

[6] = test system: Escherichia coli JUHL; assay: Antibacterial activity (MIC), agar dilution method; assay type: cell-based; details: unit assumed
Method: as §1

[7] = test system: Klebsiella pneumoniae ATCC 8045; assay: Antibacterial activity (MIC), agar dilution method; assay type: cell-based; details: unit assumed
Method: as §1

[8] = test system: Staphylococcus aureus NCTC 10649; assay: Antibacterial activity (MIC), agar dilution method; assay type: cell-based; details: unit assumed
Method: as §1

[9] = test system: Escherichia coli H560; assay: Antibacterial activity (MIC), agar dilution method; assay type: cell-based; details: unit assumed
Method: as §1

[10] = test system: Staphylococcus aureus ATCC 6538P; assay: Antibacterial activity (MIC), agar dilution method; assay type: cell-based; details: unit assumed
Method: as §1

[11] = test system: Pseudomonas aeruginosa BMH10; assay: Antibacterial activity (MIC), agar dilution method; assay type: cell-based; details: unit assumed
Method: as §1

[12] = test system: Escherichia coli KNK 437; assay: Antibacterial activity (MIC), agar dilution method; assay type: cell-based; details: unit assumed
Method: as §1

[13] = test system: Escherichia coli SS; assay: Antibacterial activity (MIC), agar dilution method; assay type: cell-based; details: unit assumed
Method: as §1

[14] = test system: Staphylococcus aureus 1775; assay: Antibacterial activity (MIC), agar dilution method; assay type: cell-based; details: unit assumed
Method: as §1

[15] = test system: Escherichia coli DC-2; assay: Antibacterial activity (MIC), agar dilution method; assay type: cell-based; details: unit assumed
Method: as §1

[16] = test system: Acinetobacter calcoaceticus CMX 669; assay: Antibacterial activity (MIC), agar dilution method; assay type: cell-based; details: unit assumed
Method: as §1

[17] = test system: Pseudomonas aeruginosa DPHD-5263; assay: Antibacterial activity (MIC), agar dilution method; assay type: cell-based; details: unit assumed
Method: as §1

[18] = test system: Enterobacter aerogenes ATCC 13048; assay: Antibacterial activity (MIC), agar dilution method; assay type: cell-based; details: unit assumed
Method: as §1

[19] = test system: Pseudomonas aeruginosa K799/61; assay: Antibacterial activity (MIC), agar dilution method; assay type: cell-based; details: unit assumed
Method: as §1

[20] = test system: Pseudomonas aeruginosa K799/WT; assay: Antibacterial activity (MIC), agar dilution method; assay type: cell-based; details: unit assumed
Method: as §1

[21] = test system: Staphylococcus aureus CMX 553; assay: Antibacterial activity (MIC), agar dilution method; assay type: cell-based; details: unit assumed
Method: as §1

[22] = test system: Streptococcus pyogenes 2548 INDUC; assay: Antibacterial activity (MIC), agar dilution method; assay type: cell-based; details: unit assumed
Method: as §1

[23] = test system: Providencia stuartii CMX 640; assay: Antibacterial activity (MIC), agar dilution method; assay type: cell-based; details: unit assumed
Method: as §1

[24] = test system: Streptococcus bovis A5169; assay: Antibacterial activity (MIC), agar dilution method; assay type: cell-based; details: unit assumed
Method: as §1

[25] = test system: Staphylococcus epidermidis 3519; assay: Antibacterial activity (MIC), agar dilution method; assay type: cell-based; details: unit assumed
Method: as §1

[26] = test system: Enterococcus faecium ATCC 8043; assay: Antibacterial activity (MIC), agar dilution method; assay type: cell-based; details: unit assumed
Method: as §1

[27] = test system: Streptococcus pyogenes 930 CONST; assay: Antibacterial activity (MIC), agar dilution method; assay type: cell-based; details: unit assumed
Method: as §1

[28] = test system: Pseudomonas aeruginosa A5007; assay: Antibacterial activity (MIC), agar dilution method; assay type: cell-based; details: unit assumed
Method: as §1

[29] = test system: Staphylococcus aureus A5177; assay: Antibacterial activity (MIC), agar dilution method; assay type: cell-based; details: unit assumed
Method: as §1

[30] = test system: Pseudomonas cepacia 2961; assay: Antibacterial activity (MIC), agar dilution method; assay type: cell-based; details: unit assumed
Method: as §1

[31] = test system: Micrococcus luteus ATCC 9341; assay: Antibacterial activity (MIC), agar dilution method; assay type: cell-based; details: unit assumed
Method: as §1

[32] = test system: Streptococcus agalactiae CMX 508; assay: Antibacterial activity (MIC), agar dilution method; assay type: cell-based; details: unit assumed
Method: as §1

- EC50 [1]: 0.182 nM
SMILES: CC[C@H]1OC(=O)[C@H](C)[C@@H](O[C@H]2C[C@@](C)(OC)C[C@H](C)O2)[C@H](C)[C@@H](O[C@@H]2O[C@H](C)C[C@H](NC)[C@H]2O)[C@@]2(C)CC(C)=C(O2)[C@H](C)[C@@H](O)[C@]1(C)O [Example 3, 8,9-anhydro-4"-deoxy-3'-N-desmethyl erythromycin A-6,9-hemiketal]
- Relative Potency [1]: 7,762

- EC50 [1]: 0.00316 nM
SMILES: CC[C@H]1OC(=O)[C@H](C)[C@@H](O[C@H]2C[C@@](C)(OC)C[C@H](C)O2)[C@H](C)[C@@H](O[C@@H]2O[C@H](C)C[C@H](N(C)CC)[C@H]2O)[C@@]2(C)CC(C)=C(O2)[C@H](C)[C@@H](O)[C@]1(C)O [Example 4, 8,9-anhydro-4"-deoxy-3'-N-desmethyl-3'-N-ethylerythromycin A-6,9-hemiketal]
- Relative Potency [1]: 199,526

- EC50 [1]: 22.9 nM
SMILES: C#CC[N+](C)(C)[C@H]1C[C@@H](C)O[C@@H](O[C@@H]2[C@@H](C)[C@H](O[C@H]3C[C@@](C)(OC)C[C@H](C)O3)[C@@H](C)C(=O)O[C@H](CC)[C@@](C)(O)[C@H](O)[C@@H](C)C3=C(C)C[C@@]2(C)O3)[C@@H]1O [Example 5, 8,9-anhydro-4"-deoxy-3'-N-propargylerythromycin A-6,9-hemiketal bromide]
- Relative Potency [1]: 62

The remaining lines, values behind:

SMILES: CC[C@H]1OC(=O)[C@H](C)[C@@H](O[C@H]2C[C@@](C)(OC)C[C@H](C)O2)[C@H](C)[C@@H](O[C@@H]2O[C@H](C)C[C@H](N(C)C)[C@H]2O)[C@@]2(C)CC(C)=C(O2)[C@H](C)[C@@H](O)[C@]1(C)O [Example 1, 8,9-Anhydro-4"-deoxyerythromycin A-6,9-hemiketal]
- EC50 [1]: 3.89 nM
- Relative Potency [1]: 363

SMILES: CC[C@H]1OC(=O)[C@H](C)[C@@H](O[C@H]2C[C@@](C)(OC)C[C@H](C)O2)[C@H](C)[C@@H](O[C@@H]2O[C@H](C)C[C@H](N(C)C)[C@H]2O)[C@@]2(C)CC(C)=C(O2)[C@H](C)[C@@H](O)[C@H]1C [Example 2, 8,9-anhydro-4"-deoxyerythromycin B-6,9-hemiketal]
- EC50 [1]: 0.0055 nM
- Relative Potency [1]: 257,039

SMILES: CC[C@H]1OC(=O)[C@H](C)[C@@H](O[C@H]2C[C@@](C)(OC)C[C@H](C)O2)[C@H](C)[C@@H](O[C@@H]2O[C@H](C)C[C@H](NC)[C@H]2O)[C@@]2(C)CC(C)=C(O2)[C@H](C)[C@@H](O)[C@H]1C [Example 6, 8,9-anhydro-4"-deoxy-3'-N-desmethylerythromycin B-6,9-hemiketal]
- Endpoint (pED50) could not be obtained, potency in words [1]: extremely high potency
- Relative Potency [1]: > 8000

SMILES: CC[C@H]1OC(=O)[C@H](C)[C@@H](O[C@H]2C[C@@](C)(OC)C[C@H](C)O2)[C@H](C)[C@@H](O[C@@H]2O[C@H](C)C[C@H](N(C)CC)[C@H]2O)[C@@]2(C)CC(C)=C(O2)[C@H](C)[C@@H](O)[C@H]1C [Example 7, 8,9-anhydro-4"-deoxy-3'-N-desmethyl-3'-N-ethylerythromycin B-6,9-hemiketal]
- MIC [2]: > 100 µg/mL
- MIC [3]: 50 µg/mL (≈ 71.6 µM)
- MIC [4]: > 100 µg/mL
- MIC [5]: > 100 µg/mL
- MIC [6]: > 100 µg/mL
- MIC [7]: > 100 µg/mL
- MIC [8]: 100 µg/mL (≈ 143 µM)
- MIC [9]: > 100 µg/mL
- MIC [10]: 100 µg/mL (≈ 143 µM)
- MIC [11]: > 100 µg/mL
- MIC [12]: > 100 µg/mL
- MIC [13]: 100 µg/mL (≈ 143 µM)
- MIC [14]: > 100 µg/mL
- MIC [15]: > 100 µg/mL
- MIC [16]: > 100 µg/mL
- MIC [17]: > 100 µg/mL
- MIC [18]: > 100 µg/mL
- MIC [19]: > 100 µg/mL
- MIC [20]: > 100 µg/mL
- MIC [21]: > 100 µg/mL
- MIC [22]: 50 µg/mL (≈ 71.6 µM)
- MIC [23]: > 100 µg/mL
- MIC [24]: 50 µg/mL (≈ 71.6 µM)
- MIC [25]: 100 µg/mL (≈ 143 µM)
- MIC [26]: 50 µg/mL (≈ 71.6 µM)
- MIC [27]: > 100 µg/mL
- MIC [28]: > 100 µg/mL
- MIC [29]: 100 µg/mL (≈ 143 µM)
- MIC [30]: > 100 µg/mL
- MIC [31]: 12.5 µg/mL (≈ 17.9 µM)
- MIC [32]: 50 µg/mL (≈ 71.6 µM)
- Endpoint (pED50) could not be obtained, potency in words [1]: extremely high potency
- Relative Potency [1]: > 8000

Reference: patent US5654411A, “Process for preparing 4-deoxyerythromycin derivatives” (Abbott Laboratories, priority 1995, dated 1997)
